Test results reported in US8791079B2, “Methods for treating heart failure by inhibiting the mitochondrial sodium-calcium exchanger (mNCE)” (priority 2009, dated 2014).

Assays:
[1] = system: Guinea pig ventricular myocytes; assay: Mitochondrial NADH autofluorescence in isolated myocytes during 1-Hz stimulation; assay type: cell-based; settings: 1-μM ouabain + 100-nM isoproterenol, without (ouabain) or with 1 μM CGP-37157; for NADH level before stimulation: before 1-Hz stimulation; for NADH level by the end of stimulation: end of 1-Hz stimulation (three minutes)
Method: (§1) Guinea pig ventricular myocytes were isolated by enzymatic digestion as described previously. O'Rourke, B., et al., “Oscillations of membrane current and excitability driven by metabolic oscillations in heart cells,” Science, 265(5174):962-966 (Aug. 12, 1994). Cells were suspended in Dulbecco's Modification of Eagle's Medium (DMEM) supplemented with 5% fetal bovine serum, 1% penicillin/streptomycin, and 15 mmol/L HEPES, pH 7.4, and stored in a 5% CO2 incubator at 37° C.
(§2) Cytosolic Ca^2+ ([Ca^2+]c), mitochondrial Ca^2+ ([Ca^2+]m), and [Na^+]i were measured with the fluorescent indicators indo-1, rhod-2, and sodium-binding benzofuran isophthalate (SBFI), respectively (Invitrogen, Carlsbad, Calif.), and mitochondrial NADH was measured as the cellular autofluorescence with 360-nm excitation/450-nm emission. Indo-1 was loaded into cell with the membrane permeable form, indo-1 AM. To minimize indo-1 loading into the mitochondrial compartment, cells were briefly incubated with indo-1 AM at room temperature for 20 min. Rhod-2 and SBFI experiments were carried out as previously described. Maack et al., supra, Liu and O'Rourke, supra. Cytoplasmic rhod-2 was eliminated by using rhod-2-free patch pipettes. Maack et al., supra, Liu and O'Rourke, supra. The ROS-sensitive fluorescent probe 5-(−6)-chloromethyl-2′,7′-dichlorohydrofluorescein diacetate (CM-H2DCFDA) was used to monitor the extent of oxidative stress, as previously described. Aon, M. A., et al., “Synchronized whole cell oscillations in mitochondrial metabolism triggered by a local release of reactive oxygen species in cardiac myocytes,” J. Biol. Chem., 278(45):44735-44744 (Nov. 7, 2003). This probe is primarily localized in the mitochondrial matrix, see Aon et al., supra, and is oxidized by hydrogen peroxide to yield fluorescent CM-DCF, thus indirectly reporting mitochondrial superoxide production.
Isolated ventricular myocytes were loaded into a heated field-stimulation chamber (Warner Instruments, Hamden, Conn.) at 37° C. on the stage of a fluorescence microscope (Nikon Eclipse TE300, Nikon Instruments, Inc., Melville, N.Y.). The myocytes were first superfused with control Tyrode's solution containing: NaCl (130 mmol/L), KCl (5 mmol/L), MgCl2 (1 mmol/L), Na-HEPES (10 mmol/L), CaCl2 (2 mmol/L), glucose (10 mmol/L), at pH 7.4. After one minute of recording in the absence of electrical stimulation in control buffer, 1-μM ouabain and 100-nM isoproterenol, with or without 1 μM CGP-37157, were added to buffer. After another five minutes of recording, myocytes were field-stimulated at 1 Hz for three minutes followed by a two-minute recording after returning to the resting state. To record [Ca^2+]m and action potentials, myocytes were whole-cell patch-clamped at 37° C. […]

[2] = system: Guinea pig ventricular myocytes; assay: Mitochondrial Ca2+ ([Ca2+]m, rhod-2) in patch-clamped myocytes; assay type: cell-based
Method: as §1
(§3) Cytosolic Ca^2+ ([Ca^2+]c), mitochondrial Ca^2+ ([Ca^2+]m), and [Na^+]i were measured with the fluorescent indicators indo-1, rhod-2, and sodium-binding benzofuran isophthalate (SBFI), respectively (Invitrogen, Carlsbad, Calif.), and mitochondrial NADH was measured as the cellular autofluorescence with 360-nm excitation/450-nm emission. Indo-1 was loaded into cell with the membrane permeable form, indo-1 AM. To minimize indo-1 loading into the mitochondrial compartment, cells were briefly incubated with indo-1 AM at room temperature for 20 min. Rhod-2 and SBFI experiments were carried out as previously described. Maack et al., supra, Liu and O'Rourke, supra. […]
(§4) Isolated ventricular myocytes were loaded into a heated field-stimulation chamber (Warner Instruments, Hamden, Conn.) at 37° C. on the stage of a fluorescence microscope (Nikon Eclipse TE300, Nikon Instruments, Inc., Melville, N.Y.). […]

[3] = system: Guinea pig ventricular myocytes; assay: ROS / oxidative stress (CM-H2DCFDA, CM-DCF oxidation) in isolated myocytes; assay type: cell-based; settings: 100-nM isoproterenol with 1-μM ouabain, without or with 1-μM CGP-37157; 1-Hz stimulation
Method: as §1, §3, §4

[4] = system: Guinea pig ventricular myocytes; assay: Cytosolic Ca2+ ([Ca2+]c, indo-1) cycling in isolated myocytes; assay type: cell-based; settings: ouabain without or with CGP-37157; for diastolic [Ca2+]c before stimulation / diastolic [Ca2+]c after three minutes of stimulation / increase of amplitude of [Ca2+]c transient (Δ[Ca2+]c) compared to control: 100-nM isoproterenol; for diastolic [Ca2+]c before stimulation: before 1-Hz stimulation; for diastolic [Ca2+]c after three minutes of stimulation: end of 1-Hz stimulation; for increase of amplitude of [Ca2+]c transient (Δ[Ca2+]c) compared to control: midpoint of 1-Hz stimulation, control = isoproterenol only; for spontaneous Ca2+ oscillations / discordant contractions: prolonged stimulation
Method: as §1, §2
Isolated ventricular myocytes were loaded into a heated field-stimulation chamber (Warner Instruments, Hamden, Conn.) at 37° C. on the stage of a fluorescence microscope (Nikon Eclipse TE300, Nikon Instruments, Inc., Melville, N.Y.). The myocytes were first superfused with control Tyrode's solution containing: NaCl (130 mmol/L), KCl (5 mmol/L), MgCl2 (1 mmol/L), Na-HEPES (10 mmol/L), CaCl2 (2 mmol/L), glucose (10 mmol/L), at pH 7.4. After one minute of recording in the absence of electrical stimulation in control buffer, 1-μM ouabain and 100-nM isoproterenol, with or without 1 μM CGP-37157, were added to buffer. After another five minutes of recording, myocytes were field-stimulated at 1 Hz for three minutes followed by a two-minute recording after returning to the resting state. To record [Ca^2+]m and action potentials, myocytes were whole-cell patch-clamped at 37° C. Tyrode's solution was used as external solution and the internal solution contained: NaCl (10 mmol/L), KCl (19 mmol/L), K-glutamate (125 mmol/L), MgCl2 (0.5 mmol/L), HEPES (10 mmol/L), MgATP (5 mmol/L), at pH 7.25.

Guinea pig hearts = assay: Hemodynamics of isolated perfused hearts (Langendorff)
Text: Guinea pig hearts were quickly excised under anesthesia and mounted on a modified Langendorff apparatus attached to a Powerlab system (AD Instruments, Colorado Springs, Colo.). Hearts were perfused with gassed (95/5% O2/CO2) control buffer containing: 118-mM NaCl, 24-mM NaHCO3, 1.2-mM KH2PO4, 4.75-mM KCl, 1.2-mM MgSO4, 2.0-mM CaCl2, and 10-mM glucose. A buffer-filled latex balloon (Harvard apparatus) was inserted through the mitral valve into the left ventricle. Hearts were suspended in a buffer-filled heating chamber maintained at 37° C. and two electrodes were placed into the bath for volume-conducted electrocardiogram recordings. Heart rate, left ventricular developed pressure (LVDP), maximal rates of contraction and relaxation (±dP/dt), oxygen consumption, and electrocardiograms (ECG) were recorded on a computer. After a ten-minute equilibration period, hearts were subjected to the following protocol: ten-minute baseline recording while the heart was perfused with control buffer, ten-minute recording while 0.25-μM ouabain with or without 1 μM CGP-37157, and sixty-minute recording while hearts were stimulated with 25-nM isoproterenol. The measurements of hemodynamic parameters were determined by taking the average during the last two minutes before ouabain treatment (baseline) and for two minutes during the maximal effect on LVDP of either ouabain or isoproterenol.
In Table 1A-1C, hemodynamics of isolated perfused hearts were recorded at baseline, with ouabain treatment (1 μM), and with ouabain plus isoproterenol (100 nM) stimulation with or without CGP-37157 (1 μM). HR, heart rate; LVDP, left ventricular developed pressure; Oua: ouabain; CGP: CGP-37157; VF: ventricular fibrillation. *p<0.05 compared to group without CGP; † p<0.05 compared to baseline.

[5] = ouabain application, without or with CGP-37157
[6] = with ouabain treatment (1 μM, 0.25-μM), −CGP = ouabain alone, +CGP = plus CGP-37157 1 μM
[7] = with ouabain treatment and isoproterenol stimulation, −CGP without, +CGP with CGP-37157 1 μM
[8] = 25-nM isoproterenol in ouabain-treated hearts, absence (isoproterenol) or presence of CGP-37157
[9] = at baseline, group with CGP-37157

Row | SMILES | NADH level before stimulation [1] [%] | NADH level by the end of stimulation [1] [%] | oxidation of CM-DCF (oxidative stress) [3] | diastolic [Ca2+]c before stimulation [4] [nM] | diastolic [Ca2+]c after three minutes of stimulation [4] [nM] | increase of amplitude of [Ca2+]c transient (Δ[Ca2+]c) compared to control [4] [%] | spontaneous Ca2+ oscillations / discordant contractions [4] | increase of +dP/dt compared to baseline (Guinea pig hearts; [5]) | increase of −dP/dt compared to baseline (Guinea pig hearts; [5]) | +dP/dt (Guinea pig hearts; [6]) | HR (Guinea pig hearts; [6]) | LVDP (Guinea pig hearts; [6]) | −dP/dt (Guinea pig hearts; [6]) | +dP/dt (Guinea pig hearts; [7]) | HR (Guinea pig hearts; [7]) | LVDP (Guinea pig hearts; [7]) | further results
1 | C[C@@H]1O[C@@H](O[C@H]2C[C@@H](O)[C@]3(CO)[C@H]4[C@H](O)C[C@]5(C)[C@@H](C6=CC(=O)OC6)CC[C@]5(O)[C@@H]4CC[C@]3(O)C2)[C@H](O)[C@H](O)[C@H]1O [ouabain, 1β,3β,5β,11α,14,19-Hexahydroxycard-20(22)-enolide 3-(6-deoxy-α-L-mannopyranoside, reference compound] | 81.7±1.8 | 52.3±5.7 | higher rates of oxidation of CM-DCF | 123 ± 9 | 750 ± 142 | 112 | developed spontaneous Ca^2+ oscillations, extrasystolic contractions, and eventual hypercontracture | 20% | 4% | 2241 ± 376 † | 246.3 ± 20.3 | 106.0 ± 17.0 † | −1855 ± 229 † | 3529 ± 644 † | 315.3 ± 25.0 † | 100.4 ± 18.3 | increase of diastolic [Ca2+]m during 1-Hz stimulation ([2]; 1-μM ouabain + 100-nM isoproterenol): < 10%; increase of LVDP compared to baseline (Guinea pig hearts; [5]): 13%
2 | O=C1CSC(c2ccccc2Cl)c2cc(Cl)ccc2N1 (centres unmarked) [CGP-37157, 7-chloro-5-(2-chlorophenyl)-1,5-dihydro-4,1-benzothiazepin-2(3H)-one] | 78.3±3.2 | 80.6±2.5 | abolished the increase in oxidative stress induced by ouabain | 99 ± 14 | 370 ± 60 | 74 | significantly reduced the incidence of discordant contractions | approximately 36% | approximately 23% | 3167 ± 481 † | 250.0 ± 13.4 | 100.7 ± 12.0 † | −2306 ± 218 † | 5530 ± 736 † * | 306.7 ± 22.8 † | 130.9 ± 18.4 † | [Ca2+]m accumulation ([2]; 1 μM CGP-37157 with 1-μM ouabain + 100-nM isoproterenol, 1-Hz stimulation): significantly enhanced [Ca^2+]m accumulation; increase of +dP/dt compared to the level with ouabain treatment (Guinea pig hearts; [8]): 75%; increase of LVDP compared to the level with ouabain treatment (Guinea pig hearts; [8]): 30%; increase of heart rate (HR) compared to the level with ouabain treatment (Guinea pig hearts; [8]): 23%; increase of −dP/dt compared to the level with ouabain treatment (Guinea pig hearts; [8]): 53%; +dP/dt (Guinea pig hearts; [9]): 2326 ± 303; HR (Guinea pig hearts; [9]): 239.3 ± 8.0; LVDP (Guinea pig hearts; [9]): 91.9 ± 10.6; −dP/dt (Guinea pig hearts; [9]): −1872 ± 163; −dP/dt (Guinea pig hearts; [7]): −3518 ± 419 †
